Assay results from patent publication US20200405752A1, “ANTITUMOR AGENT, ANTITUMOR EFFECT ENHANCER, AND ANTITUMOR KIT” (FUJIFILM Corporation, priority 2018, published 2020).

What was measured:
[1] = tested on: human breast cancer cell line HCC1954 (spheroid culture); assay: Cell viability (CellTiter Glo) of HCC1954 in spheroid culture in combination with cisplatin; type: cell-based; conditions: for CI / IC50: HCC1954 spheroid culture; for CI: combination with cisplatin; for viability at 0.001 µM / viability at 0.003 µM / viability at 0.01 µM / viability at 0.03 µM / viability at 0.1 µM / viability at 0.3 µM / viability at 1 µM / viability at 3 µM / viability at 10 µM / IC50: Homo sapiens; for viability at 0.001 µM / viability at 0.003 µM / viability at 0.01 µM / viability at 0.03 µM / viability at 0.1 µM / viability at 0.3 µM / viability at 1 µM / viability at 3 µM / viability at 10 µM: 72 h, HCC1954 spheroid, with cisplatin 10 μmol/L, 3 days; for viability at 0.001 µM: test substance 1.0 nM; for viability at 0.003 µM: test substance 3.0 nM; for viability at 0.01 µM: test substance 10.0 nM; for viability at 0.03 µM: test substance 30.0 nM; for viability at 0.1 µM: test substance 100.0 nM; for viability at 0.3 µM: test substance 300.0 nM; for viability at 1 µM: test substance 1000.0 nM; for viability at 3 µM: test substance 3000.0 nM; for viability at 10 µM: test substance 10000.0 nM; for IC50: in combination with cisplatin (10 μmol/L)
Text: (§1) On the combinational effect of the embodiment of the invention, the results of evaluation using a combination index (CI) which is a quantitative index of the combinational effect are shown. The CI can be calculated by the following equation according to Cancer Research, 2010, Vol. 70, pp. 440 to 446.
(§2) That is, in a case where the drugs to be used in combination are drug 1 and drug 2, the CI at a certain drug concentration is
(§3) CI={(cell viability in case of using drug 1 and drug 2 in combination)/100}/{[(cell viability in case of using drug 1)/100]×[(cell viability in case of using drug 2)/100]}
Evaluation of Antitumor Activity Against Breast Cancer-Derived Cell Line HCC1954 by Combined Use of Cisplatin in Spheroid Culture
(§4) Gemcitabine, cisplatin, and methanesulfonate of Compound A were used as test substances.
(§5) Gemcitabine hydrochloride (manufactured by Plantex Co., Ltd.) dissolved in dimethyl sulfoxide (DMSO) was used as gemcitabine. Cisplatin (Cat. #039-20091, manufactured by Wako Pure Chemical Industries, Ltd.) dissolved in DMSO was used as cisplatin.
(§6) The human breast cancer cell line HCC1954 cells were subcultured in RPMI-1640 medium supplemented with 10% serum (Cat. #10437-028, manufactured by Thermo Fisher Scientific Inc.). During this test, all cell cultures were carried out in a CO2 incubator (set to 37° C. and 5% CO2, saturated with water vapor). The culture was diluted with 10% serum-supplemented medium to a cell density of 5000 cells/well/100 μL, and seeded on an Ultra-Low Attachment 96-well plate (Cat. #7007, manufactured by Corning Incorporated). The cells were cultured for 4 days to form spheroids.
(§7) The methanesulfonate of Compound A and gemcitabine were dissolved in DMSO to prepare 10 mmol/L DMSO solutions thereof. The thus-prepared DMSO solutions were diluted sequentially with DMSO to prepare DMSO solutions having a final treatment concentration of 1000-fold dilution. Cisplatin was dissolved in DMSO to prepare a 100 mmol/L DMSO solution. The thus-prepared DMSO solution of cisplatin was diluted with DMSO to prepare a DMSO solution having a final treatment concentration of 5000-fold dilution. Further, the DMSO solution of cisplatin was diluted with 10% serum-supplemented medium to prepare a cisplatin-containing medium having a final treatment concentration of 10-fold dilution. The DMSO diluted solutions of Compound A and gemcitabine were diluted with the cisplatin-containing medium to prepare treatment liquids having a final treatment concentration of 10-fold dilution. Compound A and gemcitabine were used with a maximum concentration of 10 μmol/L at a common ratio of 1/3 and 9 concentrations in combination with cisplatin (10 μmol/L, 5 μmol/L).
(§8) 10 μL of Compound A or gemcitabine diluted with the cisplatin-containing medium was added to each well. In addition, a group in which only a solvent containing no drug was added to wells in which cells were seeded (positive control), and a group in which only a solvent containing no drug was added to wells containing only a medium (negative control) were provided. All groups were set to n=3 well.
(§9) The cells were cultured for 3 days after the addition of the drug, and the cell viability was evaluated using a CellTiter Glo (registered trademark) Reagent (Cat. #G7570, manufactured by Promega Corporation) with the intracellular ATP level as an index. The concentration that inhibits cell viability by 50% (IC50 value) was calculated using XLFit software Ver.3 (registered trademark, manufactured by CTC Laboratory Systems Corporation).
(§10) The cell viability of each well was determined with the luminescence signal level of the negative control being 0% cell viability and the luminescence signal level of the positive control being 100% cell viability. The average value and standard deviation of the cell viability of each treatment group were calculated to prepare Table 11.

[2] = tested on: cholangiocarcinoma cell line HuCC-T1 (spheroid culture); assay: Cell viability (CellTiter Glo) of HuCC-T1 in spheroid culture in combination with cisplatin; type: cell-based, human; conditions: for viability at 0.001 µM / viability at 0.003 µM / viability at 0.01 µM / viability at 0.03 µM / viability at 0.1 µM / viability at 0.3 µM / viability at 1 µM / viability at 3 µM / viability at 10 µM / IC50: Homo sapiens; for viability at 0.001 µM / viability at 0.003 µM / viability at 0.01 µM / viability at 0.03 µM / viability at 0.1 µM / viability at 0.3 µM / viability at 1 µM / viability at 3 µM / viability at 10 µM: HuCCT-1, 72 h, HuCC-T1 spheroid, with cisplatin 10 μmol/L, 3 days; for viability at 0.001 µM: test substance 1.0 nM; for viability at 0.003 µM: test substance 3.0 nM; for viability at 0.01 µM: test substance 10.0 nM; for viability at 0.03 µM: test substance 30.0 nM; for viability at 0.1 µM: test substance 100.0 nM; for viability at 0.3 µM: test substance 300.0 nM; for viability at 1 µM: test substance 1000.0 nM; for viability at 3 µM: test substance 3000.0 nM; for viability at 10 µM: test substance 10000.0 nM; for IC50: HuCCT-1, in combination with cisplatin (10 μmol/L); for IC50 / CI: HuCC-T1 spheroid culture; for CI: combination with cisplatin
Text: as §1, §2, §3
Evaluation of Antitumor Activity Against Cholangiocarcinoma Cell Line HuCC-T1 by Combined Use of Cisplatin in Spheroid Culture
as §4, §5
as §6, with “cholangiocarcinoma” for “human breast cancer”, “HuCC-T1” for “HCC1954”
as §7, with “(10” for “(10 μmol/L, 5”
as §8, §9
as §10, with “10.” for “11.”

Row | Compound | CI [1] | viability at 0.001 µM [1] [%] | viability at 0.003 µM [1] [%] | viability at 0.01 µM [1] [%] | viability at 0.03 µM [1] [%] | viability at 0.1 µM [1] [%] | viability at 0.3 µM [1] [%] | viability at 1 µM [1] [%] | viability at 3 µM [1] [%] | viability at 10 µM [1] [%] | IC50 [1] [nM] | viability at 0.001 µM [2] [%] | viability at 0.003 µM [2] [%] | viability at 0.01 µM [2] [%] | viability at 0.03 µM [2] [%] | viability at 0.1 µM [2] [%] | viability at 0.3 µM [2] [%] | viability at 1 µM [2] [%] | viability at 3 µM [2] [%] | viability at 10 µM [2] [%] | further results
1 | Nc1ccn([C@@H]2S[C@H](CO)[C@@H](O)[C@@H]2F)c(=O)n1 [Compound A, 1-(2-deoxy-2-fluoro-4-thio-β-D-arabinofuranosyl)cytosine] | 0.03 | 92 | 94 | 75 | 65 | 38 | 15 | 2 | 2 | 2 | 49.4 | 95 | 93 | 87 | 77 | 58 | 41 | 36 | 35 | 34 | IC50 [2]: 165 nM; CI [2]: 0.42
2 | Nc1ccn([C@@H]2O[C@H](CO)[C@@H](O)C2(F)F)c(=O)n1 [Gemcitabine] | 0.60 | 96 | 100 | 101 | 97 | 88 | 73 | 60 | 52 | 50 | ≥ 10000 | 94 | 96 | 94 | 90 | 88 | 84 | 79 | 73 | 50 | IC50 [2]: ≥ 10000 nM; CI [2]: 0.79
